What was measured:
[1] = test system: RKO (RKOp27) human colon adenocarcinoma cells; experiment: Alamar Blue cell viability assay, anti-proliferative/cytotoxic activity on proliferating RKOp27 cells; format: cell-based; conditions: absence of Ponasterone A, 72 hours incubation, read-out: IC50 RKO p27 proliferating
Procedure: The anti-proliferative/cytotoxic activity of the compounds described herein, can be tested on subclones of RKO (RKOp27) human colon adenocarcinoma cells (Schmidt et al., Oncogene 19, 2423-2429; 2000) using the Alamar Blue cell viability assay (described in O'Brien et al. Eur J Biochem 267, 5421-5426, 2000). The compounds are dissolved as 20 mM solutions in dimethylsulfoxide (DMSO) and subsequently diluted in semi-logarithmic steps. DMSO dilutions are further diluted 1:100 into Dulbecco's modified Eagle's medium (DMEM) containing 10% fetal calf serum to a final concentration twice as much as the final concentration in the test. RKO subclones are seeded into 96 well flat bottom plates at a density of 4000 cells per well in a volume of 50 μl per well. 24 hours after seeding 50 μl each of the compound dilutions in DMEM are added into each well of the 96 well plate. Each compound dilution is tested as quadruplicates. Wells containing untreated control cells are filled with 50 μl DMEM containing 1% DMSO. The cells are then incubated with the substances for 72 hours at 37° C. in a humidified atmosphere containing 5% carbon dioxide. To determine the viability of the cells, 10 μl of an Alamar Blue solution (Biosource) are added and the fluorescence is measured at an extinction of 544 nm and an emission of 590 nm. For the calculation of the cell viability the emission value from untreated cells is set as 100% viability and the emission rates of treated cells are set in relation to the values of untreated cells. Viabilities are expressed as % values.
The corresponding IC50 values of the compounds for anti-proliferative/cytotoxic activity are determined from the concentration-effect curves.
Representative IC50 values for anti-proliferation/cytotoxicity determined in the aforementioned assay are described in the table A (1st column), in which the numbers of the compound correspond to the numbers of the examples.

[2] = test system: RKO colon adenocarcinoma cells (RKOp27) arrested by expression of ectopic p27Kip1; experiment: Alamar Blue cell viability assay on RKOp27 cells arrested by Ponasterone A-induced p27Kip1 (cell cycle specific mode of action); format: cell-based; conditions: Homo sapiens, RKOp27, 72 h, cells arrested by p27Kip1 induced with 10 μM Ponasterone A, 72 hours incubation, read-out: IC50 RKO p27 arrested
Procedure: To determine the cell cycle specific mode of action, subclones of RKO colon adenocarcinoma cells (RKOp27 or RKOp21 as described by Schmidt et al. in Oncogene 19, 2423-2429; 2000) are seeded into 96 well flat bottom plates at a density of 16000 cells per well in a volume of 50 μl per well in DMEM growth medium with 10% FCS containing 10 μM Ponasterone A. 24 hours after seeding 50 μl each of the compound dilutions in DMEM are added into each well of the 96 well plate. Each compound dilution is tested as quadruplicates. Wells containing untreated control cells are filled with 50 μl DMEM containing 1% DMSO. The cells are then incubated with the substances for 72 hours at 37° C. in a humidified atmosphere containing 5% carbon dioxide. To determine the viability of the cells, 10 μl of an Alamar Blue solution (Biosource) are added and the fluorescence is measured at an extinction of 544 nm and an emission of 590 nm. For the calculation of the cell viability the emission value from untreated cells is set as 100% viability and the emission rates of treated cells are set in relation to the values of untreated cells. Viabilities are expressed as % values. Viability is compared of proliferating cells grown in the absence of the inducer Ponasterone A, versus viability of cells arrested by the expression of ectopic p27Kip1 induced by Ponasterone A. The data of this experimental setting are summarized in table A (2nd column).

SMILES	IC50 [1]	IC50 [2]
CCSC(=O)N1CCc2c(sc(NC(=O)/C=C/c3cccnc3)c2C#N)C1 [Example 36, 3-Cyano-2-((E)-3-pyridin-3-yl-allanoylamino)-4,7-dihydro-5H-thieno[2,3-c]pyridine-6-carbothioic acid S-ethyl ester]	≤ 2 µM	> 100 µM
CCNC(=O)N1CCc2c(sc(NC(=O)/C=C/c3ccccc3)c2C#N)C1 [Example 37, 3-Cyano-2-((E)-phenyl-allanoylamino)-4,7-dihydro-5H-thieno[2,3-c]pyridine-6-carboxylic acid ethylamide]	≤ 2 µM	> 100 µM
CCNC(=O)N1CCc2c(sc(NC(=O)/C=C/c3cccnc3)c2C#N)C1 [Example 38, 3-Cyano-2-((E)-3-pyridin-3-yl-allanoylamino)-4,7-dihydro-5H-thieno[2,3-c]pyridine-6-carboxylic acid ethylamide]	≤ 2 µM	> 100 µM
CCCC(=O)N1CCc2c(sc(NC(=O)/C=C/c3cccnc3)c2C#N)C1 [Example 39, (E)-N-(6-Butyryl-3-cyano-4,5,6,7-tetrahydro-thieno[2,3-c]pyridin-2-yl)-3-pyridin-3-yl-acrylamide]	≤ 2 µM	> 100 µM
CCCCOC(=O)N1CCc2c(sc(NC(=O)/C=C/c3cccnc3)c2C#N)C1 [Example 43, 3-Cyano-2-((E)-3-pyridin-3-yl-allanoylamino)-4,7-dihydro-5H-thieno[2,3-c]pyridine-6-carboxylic acid butyl ester]	≤ 2 µM	> 100 µM
COC(=O)N1CCc2c(sc(NC(=O)/C=C/c3cccnc3)c2C#N)C1 [Example 44, 3-Cyano-2-((E)-3-pyridin-3-yl-allanoylamino)-4,7-dihydro-5H-thieno[2,3-c]pyridine-6-carboxylic acid methyl ester]	≤ 2 µM	> 100 µM
COc1cccc(OC(=O)N2CCc3c(sc(NC(=O)/C=C/c4cccnc4)c3C#N)C2)c1 [Example 45, 3-Cyano-2-((E)-3-pyridin-3-yl-allanoylamino)-4,7-dihydro-5H-thieno[2,3-c]pyridine-6-carboxylic acid 3-methoxy-phenyl ester]	≤ 2 µM	> 100 µM
N#Cc1c(NC(=O)/C=C/c2cccnc2)sc2c1CCN(C(=O)OCCc1ccccc1)C2 [Example 47, 3-Cyano-2-((E)-3-pyridin-3-yl-allanoylamino)-4,7-dihydro-5H-thieno[2,3-c]pyridine-6-carboxylic acid phenethyl ester]	≤ 2 µM	> 100 µM
CCSC(=O)N1CCc2c(sc(NC(=O)/C=C/c3ccccc3Cl)c2C#N)C1 [Example 48, 2-[(E)-3-(2-Chloro-phenyl)-allanoylamino]-3-cyano-4,7-dihydro-5H-thieno[2,3-c]pyridine-6-carbothioic acid S-ethyl ester]	≤ 2 µM	≥ 100 µM
CCCCCSC(=O)N1CCc2c(sc(NC(=O)/C=C/c3ccccc3)c2C#N)C1 [Example 49, 3-Cyano-2-((E)-3-phenyl-allanoylamino)-4,7-dihydro-5H-thieno[2,3-c]pyridine-6-carbothioic acid S-pentyl ester]	≤ 2 µM	≥ 100 µM
CCSC(=O)N1CCc2c(sc(NC(=O)/C=C/c3ccccc3OC)c2C#N)C1 [Example 50, 3-Cyano-2-[(E)-3-(2-methoxy-phenyl)-allanoylamino]-4,7-dihydro-5H-thieno[2,3-c]pyridine-6-carbothioic acid S-ethyl ester]	≤ 2 µM	≥ 100 µM
N#Cc1c(NC(=O)/C=C/c2ccccc2)sc2c1CCN(C(=O)n1ccnc1)C2 [Example 53, (E)-N-[3-Cyano-6-(1-imidazol-1-yl-methanoyl)-4,5,6,7-tetrahydro-thieno[2,3-c]pyridin-2-yl]-3-phenyl-acrylamide]	≤ 2 µM	≥ 100 µM
CCOc1ccccc1/C=C/C(=O)Nc1sc2c(c1C#N)CCN(C(=O)OC(C)(C)C)C2 [Example 54, 3-Cyano-2-[(E)-3-(2-ethoxy-phenyl)-allanoylamino]-4,7-dihydro-5H-thieno[2,3-c]pyridine-6-carboxylic acid tert-butyl ester]	≤ 0.5 µM	≥ 50 µM
CC(C)(C)OC(=O)N1CCc2c(sc(NC(=O)/C=C/c3ccoc3)c2C#N)C1 [Example 55, 3-Cyano-2-((E)-3-furan-3-yl-allanoylamino)-4,7-dihydro-5H-thieno[2,3-c]pyridine-6-carboxylic acid tert-butyl ester]	≤ 2 µM	≥ 100 µM
CCOC(=O)N1CCc2c(sc(NC(=O)/C=C/c3c(F)ccc(F)c3Cl)c2C#N)C1 [Example 57, 2-[(E)-3-(2-Chloro-3,6-difluoro-phenyl)-allanoylamino]-3-cyano-4,7-dihydro-5H-thieno[2,3-c]pyridine-6-carboxylic acid ethyl ester]	≤ 2 µM	≥ 100 µM
CCOC(=O)N1CCc2c(sc(NC(=O)/C=C/c3ccc(Cl)cc3F)c2C#N)C1 [Example 59, 2-[(E)-3-(4-Chloro-2-fluoro-phenyl)-allanoylamino]-3-cyano-4,7-dihydro-5H-thieno[2,3-c]pyridine-6-carboxylic acid ethyl ester]	≤ 2 µM	≥ 100 µM
CCOC(=O)N1CCc2c(sc(NC(=O)/C=C/c3ccc(OCC)cc3)c2C#N)C1 [Example 60, 3-Cyano-2-[(E)-3-(4-ethoxy-phenyl)-allanoylamino]-4,7-dihydro-5H-thieno[2,3-c]pyridine-6-carboxylic acid ethyl ester]	≤ 2 µM	≥ 100 µM
CCOC(=O)N1CCc2c(sc(NC(=O)/C=C/c3cccc(Cl)c3F)c2C#N)C1 [Example 61, 3-Cyano-2-[(E)-3-(3-chloro-2-fluoro-phenyl)-allanoylamino]-4,7-dihydro-5H-thieno[2,3-c]pyridine-6-carboxylic acid ethyl ester]	≤ 2 µM	≥ 100 µM
CCOC(=O)N1CCc2c(sc(NC(=O)/C=C/c3ccccc3OCC)c2C#N)C1 [Example 62, 3-Cyano-2-[(E)-3-(2-ethoxy-phenyl)-allanoylamino]-4,7-dihydro-5H-thieno[2,3-c]pyridine-6-carboxylic acid ethyl ester]	≤ 2 µM	≥ 100 µM
CCOC(=O)N1CCc2c(sc(NC(=O)/C=C/c3sccc3Cl)c2C#N)C1 [Example 64, 2-[(E)-3-(3-Chloro-thiophen-2-yl)-allanoylamino]-cyano-4,7-dihydro-5H-thieno[2,3-c]pyridine-6-carboxylic acid ethyl ester]	≤ 2 µM	≥ 100 µM
CCOC(=O)N1CCc2c(sc(NC(=O)/C=C/c3c(F)cccc3F)c2C#N)C1 [Example 65, 3-Cyano-2-[(E)-3-(2,6-difluoro-phenyl)-allanoylamino]-4,7-dihydro-5H-thieno[2,3-c]pyridine-6-carboxylic acid ethyl ester]	≤ 2 µM	≥ 100 µM
CCOC(=O)N1CCc2c(sc(NC(=O)/C=C/c3ccccc3Br)c2C#N)C1 [Example 66, 2-[(E)-3-(2-Bromo-phenyl)-allanoylamino]-3-cyano-4,7-dihydro-5H-thieno[2,3-c]pyridine-6-carboxylic acid ethyl ester]	≤ 2 µM	≥ 100 µM
CCOC(=O)N1CCc2c(sc(NC(=O)/C=C/c3c(F)cccc3Cl)c2C#N)C1 [Example 67, 2-[(E)-3-(2-Chloro-6-fluoro-phenyl)-allanoylamino]-cyano-4,7-dihydro-5H-thieno[2,3-c]pyridine-6-carboxylic acid ethyl ester]	≤ 2 µM	≥ 100 µM

Source: patent US7723523B2, “Tetrahydropyridothiophenes” (4SC AG, priority 2004, dated 2010)
